Reference: ChEMBL document CHEMBL5543099 (Eur J Med Chem, 2024)
Values after ≈ are worked out from the molar mass of the structure shown. Active and inactive are the calls of the source. The rule behind the calls is not given here.

Assays:
Staphylococcus aureus [1] = assay: Antibacterial activity against methicilin-resistant Staphylococcus aureus assessed as inhibition of bacterial growth incubated for 24 hrs by broth microdilution method; format: functional
Staphylococcus aureus [2] = assay: Antibacterial activity against vancomycin intermediate Staphylococcus aureus assessed as inhibition of bacterial growth incubated for 24 hrs by broth microdilution method; format: functional
Staphylococcus aureus [3] = assay: Drug resistance, ratio of MIC for Staphylococcus aureus ATCC 29213 incubated for 16 to 18 hrs and measured after 2 passages to MIC for Staphylococcus aureus ATCC 29213 incubated for 16 to 18 hrs; format: functional
Staphylococcus aureus [4] = assay: Drug resistance, ratio of MIC for Staphylococcus aureus ATCC 29213 incubated for 16 to 18 hrs and measured after 16 passages to MIC for Staphylococcus aureus ATCC 29213 incubated for 16 to 18 hrs; format: functional
Staphylococcus aureus [5] = assay: Antimicrobial activity against Staphylococcus aureus ATCC 29213 assessed as inhibition of bacterial growth incubated for 16 to 18 hrs by CLSI protocol based Muller Hinton broth assay; format: functional; settings: time 16-18 hrs
Enterococcus faecalis = assay: Antimicrobial activity against Enterococcus faecalis ATCC 29212 assessed as inhibition of bacterial growth incubated for 16 to 18 hrs by CLSI protocol based Muller Hinton broth assay; format: functional; settings: time 16-18 hrs
Escherichia coli [6] = assay: Antimicrobial activity against Escherichia coli ATCC 25922 assessed as inhibition of bacterial growth incubated for 16 to 18 hrs by CLSI protocol based Muller Hinton broth assay; format: functional; settings: time 16-18 hrs
[7] = test system: Stenotrophomonas maltophilia; assay: Antimicrobial activity against Stenotrophomonas maltophilia ATCC 17808 assessed as inhibition of bacterial growth incubated for 16 to 18 hrs by CLSI protocol based Muller Hinton broth assay; format: functional; settings: time 16-18 hrs
[8] = Hemolytic activity in defibrinated sheep RBC incubated for 1 hrs; format: toxicity, cell-based, Ovis aries, Erythrocyte; settings: defibrinated sheep red blood cells
[9] = Hemolytic activity in defibrinated sheep RBC assessed as hemolysis rate at 1280 microg/ml incubated for 1 hrs relative to control; format: toxicity, cell-based, Ovis aries, Erythrocyte; settings: defibrinated sheep red blood cells, at 1280 µg/mL, read-out: Activity
Staphylococcus aureus [10] = assay: Antibacterial activity against Staphylococcus aureus assessed as inhibition of bacterial growth incubated for 6 hrs in presence of defibrinated sheep 50% plasma by CLSI protocol based Muller Hinton broth assay; format: functional
Staphylococcus aureus [11] = assay: Antibacterial activity against Staphylococcus aureus assessed as inhibition of bacterial growth incubated for 6 hrs in presence of 50% fetal bovine plasma by CLSI protocol based Muller Hinton broth assay; format: functional
Staphylococcus aureus [12] = assay: Antibacterial activity against Staphylococcus aureus assessed as inhibition of bacterial growth by measuring fold change in MIC incubated for 6 hrs in presence of defibrinated sheep 50% plasma by CLSI protocol based Muller Hinton broth assay; format: functional
Staphylococcus aureus [13] = assay: Antibacterial activity against Staphylococcus aureus assessed as inhibition of bacterial growth by measuring fold change in MIC incubated for 6 hrs in presence of 50% fetal bovine plasma by CLSI protocol based Muller Hinton broth assay; format: functional
Staphylococcus aureus [14] = assay: Antibacterial activity against Staphylococcus aureus assessed as inhibition of bacterial growth by measuring fold change in MIC incubated for 6 hrs in presence of 50% fetal bovine serum by CLSI protocol based Muller Hinton broth assay; format: functional
Staphylococcus aureus [15] = assay: Antibacterial activity against Staphylococcus aureus assessed as reduction in bacterial colony incubated upto 24 hrs by time-kill kinetics assay; format: functional
Staphylococcus aureus [16] = assay: Antibacterial activity against Staphylococcus aureus assessed as reduction in bacterial colony at 8 times of MIC incubated for 1 hrs by time-kill kinetics assay; format: functional, organism-based
Escherichia coli [17] = assay: Antibacterial activity against Escherichia coli assessed as reduction in bacterial colony at 2 times of MIC incubated for 2 to 24 hrs by time kill kinetics assay; format: functional, organism-based; settings: time 2-24 hrs
Staphylococcus aureus [18] = assay: Antimicrobial activity against Staphylococcus aureus ATCC 29213 incubated for 16 to 18 hrs and measured before 9th passage by CLSI protocol based Muller Hinton broth assay; format: functional, organism-based
Escherichia coli [19] = assay: Antibacterial activity against Escherichia coli ATCC 25922 incubated for 16 to 18 hrs and measured before 7th passage by CLSI protocol based Muller Hinton broth assay; format: functional, organism-based
Escherichia coli [20] = assay: Drug resistance, ratio of MIC for Escherichia coli ATCC 25922 incubated for 16 to 18 hrs and measured after 25 passage to MIC for Escherichia coli ATCC 25922 incubated for 16 to 18 hrs; format: functional
Staphylococcus aureus [21] = assay: Antibacterial activity against persistent Staphylococcus aureus assessed as reduction in bacterial colony at 16 times of MIC measured for 24 hrs by CLSI protocol based Muller Hinton broth assay; format: functional, organism-based
Staphylococcus aureus [22] = assay: Anti-biofilm activity against Staphylococcus aureus assessed as reduction in bacterial density at 16 times of MIC incubated for 24 hrs by confocal laser scanning microscopic analysis; format: functional, organism-based
Staphylococcus aureus [23] = assay: Anti-biofilm activity against Staphylococcus aureus assessed as reduction in extended colonies in biofilm at 16 times of MIC incubated for 24 hrs by confocal laser scanning microscopic analysis; format: functional, organism-based
Staphylococcus aureus [24] = assay: Anti-biofilm activity against Staphylococcus aureus assessed as reduction in bacteria in biofilm at 32 times of MIC incubated for 24 hrs by confocal laser scanning microscopic analysis; format: functional, organism-based
Staphylococcus aureus [25] = assay: Anti-biofilm activity against Staphylococcus aureus assessed as punctate distribution of bacteria in biofilm at 32 times of MIC incubated for 24 hrs by confocal laser scanning microscopic analysis; format: functional, organism-based
Cell membrane [26] = assay: Induction of Cytoplasmic membrane depolarization in Staphylococcus aureus at 8 to 16 microg/ml incubated for 15 mins by fluorescence microplate reader; format: cell membranes; settings: dose 8-16 µg/ml
Cell membrane [27] = assay: Induction of inner membrane permeabilization in Staphylococcus aureus assessed as fluorescence intensity at 16 microg/ml incubated for 15 mins by PI staining based microplate reader; format: cell membranes; settings: dose 16.0 µg/ml
Staphylococcus aureus [28] = assay: Induction of morphological changes in Staphylococcus aureus assessed as disintegrated membrane blocks at 8 times of MIC incubated for 4 hrs by scanning electron microscopic analysis; format: functional, organism-based
Staphylococcus aureus [29] = assay: Induction of morphological changes in Staphylococcus aureus assessed as appearance of aggregated membrane sheets at 8 times of MIC incubated for 4 hrs by scanning electron microscopic analysis; format: functional, organism-based
Staphylococcus aureus [30] = assay: Induction of morphological changes in Staphylococcus aureus assessed as irregular spherical appearance at 8 times of MIC incubated for 4 hrs by scanning electron microscopic analysis; format: functional, organism-based
Escherichia coli [31] = assay: Induction of morphological changes in Escherichia coli assessed as outer membrane damage at 8 times of MIC incubated for 4 hrs by scanning electron microscopic analysis; format: functional, organism-based
Escherichia coli [32] = assay: Induction of morphological changes in Escherichia coli assessed as disintegration of rod shaped cells at 8 times of MIC incubated for 4 hrs by scanning electron microscopic analysis; format: functional, organism-based
Escherichia coli [33] = assay: Induction of morphological changes in Escherichia coli assessed as shattering of rod shaped cells at 8 times of MIC incubated for 4 hrs by scanning electron microscopic analysis; format: functional, organism-based
Cell membrane [34] = assay: Induction of cell membrane damage in Staphylococcus aureus assessed as nucleic acid leakage at 4 times of MIC incubated for 2 hrs by n ultra-micro-volume spectrophotometric analysis; format: cell membranes
Cell membrane [35] = assay: Induction of cell membrane damage in Escherichia coli assessed as nucleic acid leakage at 4 times of MIC incubated for 2 hrs by n ultra-micro-volume spectrophotometric analysis; format: cell membranes
[36] = Cytotoxicity against rat HBZY-1 cells assessed as cell survival rate at 64 microg/ml incubated for 48 hrs by CCK8 assay relative to control; format: toxicity, cell-based; settings: at 64 µg/mL, read-out: Activity
[37] = Cytotoxicity against human SW620 cells assessed as cell survival rate at 64 microg/ml incubated for 48 hrs by CCK8 assay relative to control; format: toxicity, cell-based, SW-620; settings: at 64 µg/mL, read-out: Activity
Staphylococcus aureus [38] = assay: Antibacterial activity against methicillin resistant Staphylococcus aureus; format: functional

## CCCCCCCC[n+]1ccc(CN[C@@]2(C)C[C@H](O[C@H]3[C@H](Oc4c5cc6cc4Oc4ccc(cc4Cl)[C@@H](O)[C@@H](NC(=O)[C@@H](CC(C)C)NC)C(=O)N[C@@H](CC(N)=O)C(=O)N[C@H]6C(=O)N[C@H]4C(=O)N[C@H](C(=O)N[C@@H](C(=O)O)c6cc(O)cc(O)c6-c6cc4ccc6O)[C@H](O)c4ccc(c(Cl)c4)O5)O[C@H](CO)[C@@H](O)[C@@H]3O)O[C@@H](C)[C@H]2O)cc1
Staphylococcus aureus [1]
  MIC: 0.1 µM
Staphylococcus aureus [2]
  MIC: 0.11 µM

## CCn1cc(C(=O)O)c(=O)c2cc(F)c(N3CCNCC3)cc21 [NORFLOXACIN]
Staphylococcus aureus [3]
  Ratio: 2
Staphylococcus aureus [4]
  Ratio: 64

## CCCCCCCCNC(=O)C[n+]1ccc(C(=O)N2CCN(c3cc4c(cc3F)c(=O)c(C(=O)O)cn4C3CC3)CC2)cc1.[Br-]
Staphylococcus aureus [5]
  MIC: 2 µg/mL
Enterococcus faecalis
  MIC: 2 µg/mL
Escherichia coli [6]
  MIC: 2 µg/mL
[7]
  MIC: 8 µg/mL
[8]
  HC50 at 1 h: > 1280 µg/mL
[9]
  hemolysis at 1 h, 1280 microg/ml: 5.1%
Staphylococcus aureus [10]
  MIC: 4 µg/mL
Staphylococcus aureus [11]
  MIC: 4 µg/mL
Staphylococcus aureus [12]
  fold change (FC): 2
Staphylococcus aureus [13]
  fold change (FC): 2
Staphylococcus aureus [14]
  fold change (FC): 2
Staphylococcus aureus [15]
  MIC: 2 µg/mL
Staphylococcus aureus [16]
  Activity: Active
Escherichia coli [17]
  Activity: Active
Staphylococcus aureus [18]
  Activity: Active
Staphylococcus aureus [4]
  Ratio: 4
Escherichia coli [19]
  Activity: Active
Escherichia coli [20]
  Ratio: 2
Staphylococcus aureus [21]
  Activity: Active
Staphylococcus aureus [22]
  Activity: Active
Staphylococcus aureus [23]
  Activity: Active
Staphylococcus aureus [24]
  Activity: Active
Staphylococcus aureus [25]
  Activity: Active
Cell membrane [26]
  Activity: Active
Cell membrane [27]
  Flu intensity: 300
Staphylococcus aureus [28]
  Activity: Active
Staphylococcus aureus [29]
  Activity: Active
Staphylococcus aureus [30]
  Activity: Active
Escherichia coli [31]
  Activity: Active
Escherichia coli [32]
  Activity: Active
Escherichia coli [33]
  Activity: Active
Cell membrane [34]
  Activity: Active
Cell membrane [35]
  Activity: Active
[36]
  viability at 48 h, 64 microg/ml: 96.9%
[37]
  viability at 48 h, 64 microg/ml: 68.2%

## COc1c2c(cc(F)c1N1CCN(CC(=O)Nc3ncc([N+](=O)[O-])s3)CC1)C(=O)C(C(=O)O)=CC2C1CC1 (stereo not given)
Staphylococcus aureus [38]
  MIC: 0.01 µg/mL (≈ 0.0183 µM)
